Converted amounts (≈) assume the structure as drawn. Read-outs that look alike come from different tables or passages of the source.

In data set [1] the test system is MRSA ATCC43300. As to the kind of experiment: MIC in MHB at pH 7.3 and 5.0. Format: cell-based. Particulars: Staphylococcus aureus.
Another data set concerns RAW 264.7 macrophages. Format: cell-based, mouse. Particulars: 24 h, MTT. On the procedure: The cytotoxicity of MP1102 and NZ2114 was tested by a colorimetric 3-(4, 5-dimethyl-2-thiazolyl)-2, 5-diphenyl-2-H-tetrazolium bromide (MTT) assay. Cells were added into 96-well microtiter plates (2.5 × 10^4 cells/well) and incubated for 24 h. After another 24 h incubation with MP1102 and NZ2114 (1 to 256 μg/ml), MTT solution was added and incubated for 4 h. Followed the removing of the MTT, dimethyl sulfoxide (DMSO) (150 μl/well) was added and the absorbance was measured at 570 nm. Untreated cells were used as a control. The cell survival rate was calculated using the following formula: survival rate (%) = Abs570 nm of treated sample / Abs570 nm of control × 100. The cytotoxicity detection was repeated in triplicate.
118 were incubated with 1-256 μg/ml for 24 h and subsequently cell viability was determined using the MTT
119 assay. Results are means ± S.D. for three experiments.
(1 picture or pasted object on this page, not shown here)

Data set [2] deals with MRSA ATCC43300. As to the kind of experiment: Extracellular dose-response in broth, 24 h. Type of data set: cell-based, Staphylococcus aureus. The procedure: (§1) Dose-response curves for the extracellular activities of the peptides were performed as previously described with some modifications[2],[14],[56],[57]. For extracellular activity, MSSA ATCC25923, MRSA ATCC43300 and high virulent S. aureus CVCC546 cells were adjusted to a density of 10^5 CFU/ml.
(§2) The Hill equation was used to analyze the dose-effect relationships of the intracellular and extracellular activities of MP1102 and NZ2114 against S. aureus. The Emax, Cs and goodness of fit (R^2) were calculated by non-linear regression using GraphPad Prism version 6 (GraphPad Prism Software, San Diego, CA, USA). The other statistical procedures, means and SEMs were performed and calculated using IBM SPSS Statistics 21.0.

Data set [3] deals with MSSA ATCC25923. As to the kind of experiment: Extracellular dose-response in broth, 24 h. Format: cell-based, Staphylococcus aureus. On the procedure: as §1, §2
For data set [4], the system named is Virulent S. aureus CVCC546. As to the kind of experiment: Extracellular dose-response in broth, 24 h. Type of data set: cell-based, Staphylococcus aureus. On the procedure:
as §1, §2

A further data set has as its system IL-10. As to the kind of experiment: Cytokine ELISA in S. aureus-infected RAW 264.7 cells. Format: cell-based, mouse. Particulars: 25 μg/ml, 24 h after treatment. The procedure:
To investigate the effects of MP1102 and NZ2114 on cytokine levels in cells infected with S. aureus, RAW264.7 cells (2.5 × 10^5 cells/ml) seeded into 12-well plates were incubated with MRSA ATCC43300 (MOI = 100:1) for 30 min followed by treatment with 50 μg/ml lysostaphin for 1 h to remove non-phagocytosed bacteria. The cells were then treated with 25 μg/ml MP1102, NZ2114 and vancomycin for 12 h and 24 h. Cell-free culture supernatants were collected and the concentrations of cytokines (TNF-α, IL-1β and IL-10) were determined by Jiaxuan Biotech. Co. Ltd. (Beijing, China) using an ELISA kit[58],[59].
On the technique in general: ELISA stands for enzyme-linked immunosorbent assay.

Data set [5] relates to MSSA ATCC25923. As to the kind of experiment: Mouse peritonitis model. Format: in vivo. As to conditions: 5 mg/kg, 24 h. The procedure:
The mice were infected by peritoneal injection with different S. aureus strains, including MSSA ATCC25923 (5 × 10^8 CFU), MRSA ATCC43300 (5 × 10^8 CFU) and high virulent CVCC546 (5 × 10^7 CFU), and treated with a single dose of drugs ([…], 20, 30 and 40 mg/kg for ATCC43300 and CVCC546) at 10 min after infection. Twenty-four hours after treatment, the mice were killed and peritoneal fluids were obtained by washing with 5 ml ice-cold PBS. The total number of bacteria in the fluids was determined before any further procedures and then divided into two equal fractions of 1.5 ml each for the following purposes: i) for extracellular bacteria quantification, one fraction was centrifuged for 10 min at 4 °C (300 g) and the supernatant CFU count was quantified and ii) for intracellular bacteria quantification, the other fraction was centrifuged for 5 min at 4 °C (1,000 rpm). The cells were collected and treated with 100 μg/ml gentamicin (MSSA ATCC25923) or 50 μg/ml lysostaphin (MRSA ATCC43300 and high virulent CVCC546) for 1 h at 37 °C to kill extracellular bacteria. The cells were washed twice with ice-cold PBS to remove any anti-extracellular bacterial drug. Subsequently, the cells were lysed and counted as described above for the in vitro experiment method[14],[54].

Data set [6] concerns high virulent S. aureus CVCC546. As to the kind of experiment: Mouse peritonitis model. Type of data set: in vivo. Particulars: 20 mg/kg, 24 h. The procedure:
The mice were infected by peritoneal injection with different S. aureus strains, including MSSA ATCC25923 (5 × 10^8 CFU), MRSA ATCC43300 (5 × 10^8 CFU) and high virulent CVCC546 (5 × 10^7 CFU), and treated with a single dose of drugs (5 mg/kg for ATCC25923, 20, 30 and 40 mg/kg for ATCC43300 and CVCC546) at 10 min after infection. Twenty-four hours after treatment, the mice were killed and peritoneal fluids were obtained by washing with 5 ml ice-cold PBS. The total number of bacteria in the fluids was determined before any further procedures and then divided into two equal fractions of 1.5 ml each for the following purposes: i) for extracellular bacteria quantification, one fraction was centrifuged for 10 min at 4 °C (300 g) and the supernatant CFU count was quantified and ii) for intracellular bacteria quantification, the other fraction was centrifuged for 5 min at 4 °C (1,000 rpm). The cells were collected and treated with 100 μg/ml gentamicin (MSSA ATCC25923) or 50 μg/ml lysostaphin (MRSA ATCC43300 and high virulent CVCC546) for 1 h at 37 °C to kill extracellular bacteria. The cells were washed twice with ice-cold PBS to remove any anti-extracellular bacterial drug. Subsequently, the cells were lysed and counted as described above for the in vitro experiment method[14],[54].

The next data set relates to macrophages. As to conditions: at 24 h; cited from earlier work. An excerpt: Due to several limitations (including protein binding conditions and differences in the pharmacokinetics) in the in vitro macrophage intracellular model, an in vivo mouse peritonitis model was also examined to further evaluate the intracellular efficiency of MP1102 and NZ2114. The intracellular bacterial killing efficacy of MP1102 and NZ2114 was decreased in vivo compared to extracellular killing, though the difference was less than the in vitro model, which may be related to the complex in vivo environment weakening the antibacterial efficiency and the eradication of extracellular bacteri ...

Where [7] appears, read: Hill equation, 95% CI in brackets.
Where [8] appears, read: change at 24 h from original inoculum, extrapolated, Hill equation.
Where [9] appears, read: static concentration, graphical interpolation.

On to `CN[C@H](CC(C)C)C(=O)N[C@H]1C(=O)N[C@@H](CC(N)=O)C(=O)N[C@H]2C(=O)N[C@H]3C(=O)N[C@H](C(=O)N[C@H](C(=O)O)c4cc(O)cc(O)c4-c4cc3ccc4O)[C@H](O)c3ccc(c(Cl)c3)Oc3cc2cc(c3O[C@@H]2O[C@H](CO)[C@@H](O)[C@H](O)[C@H]2O[C@H]2C[C@](C)(N)[C@H](O)[C@H](C)O2)Oc2ccc(cc2Cl)[C@H]1O` [Vancomycin], for which the MIC in the data set with MRSA ATCC43300 [1] (pH 5, read-out: MICs) was 1 µg/mL (≈ 0.69 µM); in the data set on MRSA ATCC43300 [1] (pH 7.3, read-out: MICs) it was 1 µg/mL (≈ 0.69 µM). Also, the survival rate in the data set with RAW 264.7 macrophages (128 μg/ml) stood at 100%; in the data set on RAW 264.7 macrophages (256 μg/ml), 85.9%. The EC50 with MRSA ATCC43300 [2] (setting [7]) is given as 5.40 multiples of the MIC; in the data set with MSSA ATCC25923 [3] (setting [7]), 1.87 multiples of the MIC; in [4] (setting [7]), 0.92 multiples of the MIC. Besides, the “Emax (log CFU, 95% CI)” value in the data set with MRSA ATCC43300 [2] (setting [8]) is −5.89 log CFU; with MSSA ATCC25923 [3] (setting [8]), −5.37 log CFU; in [4] (setting [8]), −5.85 log CFU. The Cs in the data set with MRSA ATCC43300 [2] (setting [9]) is ~5.88 multiples of the MIC; in the data set with MSSA ATCC25923 [3] (setting [9]), ~1.48 multiples of the MIC; in data set [4] (setting [9]) it was ~1.10 multiples of the MIC. Besides, the “IL-10 levels decreased by” value with IL-10 came to 12.0 pg/mL. The “effect on bacterial load” value in the data set with MSSA ATCC25923 [5] is recorded as “no significant effects were observed”. In addition, in [6], the “log reduction, extracellular” value stood at 4.9 log. Besides, in [6], the “log reduction, intracellular” value amounted to 3.7 log. Further, the “log reduction, total” value in data set [6] is given as 3.9 log. For the same compound, the accumulation in macrophages entry in the data set on macrophages is on record as “up to 8 fold”.
